Data as given in US20110195898A1, “TREATMENT OF ALZHEIMER'S DISEASE AND MILD COGNITIVE IMPAIRMENT USING GNRH-I ANALOGS AND ONE OR MORE OF ACETYLCHOLINESTERASE INHIBITORS AND NMDA RECEPTOR ANTAGONISTS” (Voyager Pharmaceutical Corporation, priority 2004, published 2011).
Structures can show the parent of a compound that is named as a salt.

Legend:
[1] = in vivo; cited from earlier work
[2] = tested on: mild-to-moderate Alzheimer's disease patients; details: cited from earlier work
[3] = tested on: women diagnosed with mild-to-moderate Alzheimer's Disease; test: ADAS-Cog test, 48-week double-blind placebo-controlled clinical trial; format: in vivo, human
Method: During 2004-2005, a 48-week, double-blind placebo-controlled dose ranging study was conducted in 108 women diagnosed with mild-to-moderate Alzheimer's Disease. The study inclusion criteria included a requirement that each patient either (a) is taking a cholinesterase inhibitor, began taking it at least 90 days prior to the trial and is likely to continue taking it at the same dosage level throughout the trial; or (b) has never taken a cholinesterase inhibitor or has stopped taking at least 90 days prior to the trial and is likely to remain off cholinesterase inhibitors throughout the trial. The patients in the subgroup taking cholinesterase inhibitors were in turn divided into two groups for analysis purposes:
Group 1 patients were administered an injectable 22.5 mg formulation of leuprolide acetate in combination with a stable dose of acetylcholinesterase inhibitors (AChEI). At the completion of the study, Group 1 included 24 subjects. Group 2 patients were administered a placebo injection (saline) in combination with a stable dose of AChEI. […]
During the Phase II study, the administrations of leuprolide acetate and placebo occurred at weeks 0, 12, 24, 36, and 48 of the study, whereas doses of AChE inhibitors were taken as prescribed by a physician (determined as the proper beneficial level) to each specific patient before enrollment. […]

men with prostate cancer = details: daily injections for up to two years, Lupron Depot package insert; cited from earlier work
testosterone suppression = details: Fowler et al. 2000; cited from earlier work
[4] = tested on: glioblastoma cell lines (LN229, U87, U118MG); test: Cell growth assay (WST-8, 96 well), glioblastoma cell lines; format: cell-based; details: 10^-5 M (12.25 μg/ml) vs 0 M control, WST-8, optical density 450 nm, FIG. 5
Method: (§1) For cell growth assays in a 96 well format, a specific number of cells were plated (about 1000 cells for each line). All cell lines were plated in their respective growth media (supplemented with either 1% regular fetal bovine serum, 1% charcoal/dextran-stripped fetal bovine serum or 0.25% Albumax™ (Invitrogen Corp., Grand Island N.Y.)) and allowed to settle for 24 hours. Leuprolide treatments were commenced […]. A 10 mM (12.25 mg/ml) solution of leuprolide acetate salt in phosphate buffered saline was prepared and diluted appropriately to obtain the desired final concentrations. Treatment concentrations were 0 M (control) and 10^−5 M (shown as 1.00E-5, 12.25 μg/ml). The number of cells in each group was measured by incubating cells with WST-8 (2-(2-methoxy-4-nitrophenyl)-3-(4-nitrophenyl)-5-(2,4-disulfophenyl)-2H-tetrazolium, monosodium salt) which produces a water soluble formazan dye that was detected by measuring optical density (at 450 nm) using a μQuant™ Universal Microplate Spectrophotometer (Bio-Tek® Instruments, Inc., Winooski, Vt.).

[5] = tested on: neuroblastoma cell lines (DAOY, SKNMC, CCF-SttG1); test: Cell growth assay (WST-8, 96 well), neuroblastoma cell lines; format: cell-based; details: 10^-5 M (12.25 μg/ml) vs 0 M control, WST-8, optical density 450 nm, FIG. 5
Method: as §1

## CC12CC3CC(C)(C1)CC(N)(C3)C2 [Memantine]
[1]
  dose excreted in the urine unchanged: up to 82%

## COc1cc2c(cc1OC)C(=O)C(CC1CCN(Cc3ccccc3)CC1)C2 (stereo not drawn) [donepezil, Donepezil]
[2]; Wilcock et al., one year trial comparing two AChEIs
  decline on ADAS-cog after 52 weeks of treatment: 3.43±0.8 points

## CCNC(=O)[C@@H]1CCCN1C(=O)[C@H](CCCNC(=N)N)NC(=O)[C@H](CC(C)C)NC(=O)[C@@H](CC(C)C)NC(=O)[C@H](Cc1ccc(O)cc1)NC(=O)[C@H](CO)NC(=O)[C@H](Cc1c[nH]c2ccccc12)NC(=O)[C@H](Cc1c[nH]cn1)NC(=O)[C@@H]1CCC(=O)N1 [leuprolide acetate, 5-oxo-L-prolyl-L-histidyl-L-tryptophyl-L-seryl-L-tyrosyl-D-leucyl-L-leucyl-L-arginyl-N-ethyl-L-prolinamide acetate (salt)]
[3]; 100% decline = 5.6 ADAS-cog points in a year (literature placebo)
  cognitive decline as percent of expected no-treatment decline: 84%
[3]; females, over 48 weeks, stable dose of AChEI, leuprolide acetate (Lupron Depot) 22.5 mg at 12-week intervals where given
  decline on ADAS-cog (mean change from baseline): 4.68 points
Men with prostate cancer
  adverse effects of 20 mg per day versus 1 mg per day: did not result in any adverse effects different from what was seen with the 1 mg dose
Testosterone suppression
  serum concentration considered adequate for testosterone suppression: less than 1 ng/ml
[4]
  cell growth of glioblastoma cell lines: inhibits cell growth
[4]; listed as Leuprolide
  cell growth of glioblastoma cell lines: very effective at slowing the growth
[5]
  cell growth of neuroblastoma cell lines: inhibits cell growth
[5]; listed as Leuprolide
  cell growth of neuroblastoma cell lines: very effective at slowing the growth

## NCCCS(=O)(=O)O [tramiprosate]
[2]; ongoing trial, overall decline, mild patients
  overall 18 month decline on ADAS-cog, mild patients: 5.5 points
[2]; ongoing trial, overall decline, moderate patients
  overall 18 month decline on ADAS-cog, moderate patients: 6.3 points
